The values that follow come from publication PMC5652740, “Inhibition of HIV-1 infection in humanized mice and metabolic stability of protein phosphatase-1-targeting small molecule 1E7-03” (Oncotarget, 2017).

pIC50, pKd: −log10 of the molar value. Values joined by “and” are separate entries in the source; they are usually repeats but may differ in a detail not shown here. Identical values can stand only once. Like-named read-outs stand apart in the source and are kept apart here.

One data set concerns HIV-1-LUC-G. Description: Single round HIV-1 replication, luciferase readout in CEM T cells. It counts as cell-based. The note with it: Human immunodeficiency virus 1, T-cell. Here is the method:
CEM T cells were infected with VSVG-pseudotyped pNL4-3.Luc.R-E-virus (HIV-1-LUC-G) prepared as previously described and cultured in 96-well white plates ( 1.25 × 10^6 cells/ml, 100 μl/well) at 37°C and 5% CO2. The cells were treated with serial dilutions of the compounds or vehicle (DMSO) and incubated overnight. At 24 hrs post infection, 100 μl of reconstituted luciferase buffer (Luclite Kit, Perkin Elmer) was added to each well, incubated for 10 min and luminescence was measured using Glo-Max Microplate Multimode reader (Promega).

Data set [1] in a line: Stability in mouse liver microsomes. Conditions: 10 μM 1E7-03, 37°C, 1 hr; 1E7-03 remaining and DP1, DP3 formed. It counts as in vitro ADME. Here is the method: The metabolic stability of 1E7-03 was also investigated using a pool of human and mouse liver microsomes (HMS9PL, MSS9PL, Thermo Scientific) following manufacturer's instructions. In brief, incubations were conducted at 37 ± 1°C in mixtures containing 5 μl of human or mouse liver microsomes (20 mg/ml), 183 μl of potassium phosphate buffer (pH 7.4, 100 mM) and 2 μl of 1E7-03 (10 mM sock solution of 1E7-03 in DMSO was diluted into 1 mM by PBS). The mixture was pre-incubated for 5 min, then initiated the reactions with the addition of 10 μl 20 mM NADPH (Sigma Aldrich). The reactions were terminated after 1 hr incubation by adding 800 μl cold acetone. The mixture was kept at 4°C for 30 min, and the precipitated protein was removed by centrifugation (13, 000 g for 10 min at 4°C). A 250 μl aliquot of supernatant was transferred to a clean test tube and evaporated to dryness using a SpeedVac concentrator. The residue was reconstituted in 50 μl of acetonitrile with 0.1% FA for LC/FT-MS analysis.
(In general: Liver microsomes are a subcellular fraction often used to study metabolism.)

Another data set has as its system HIV-1 env and gag mRNA. Kind of data set: HIV-1 env and gag mRNA expression by real-time RT-PCR in infected CEM T cells. It counts as cell-based. Conditions: 10 μM 1E7-03, DP1, DP3; 5 μM AZT, 3TC; in words. Here is the method:
For quantitative analysis of HIV-1 RNA, CEM T cells were infected with HIV-1-LUC-G virus. Cells were treated with 10 μM 1E7-03, 10 μM DP1, 10 μM DP3, 5 μM AZT or 5 μM 3TC and control cells were untreated or treated with DMSO. Total RNA was isolated using Trizol Reagent (Invitrogen, Carlsbad, CA) according to the manufacturer's protocol. Total RNA (100 ng) was reverse transcribed to cDNA using Superscript™ RT-PCR kit (Invitrogen, Carlsbad, CA). Hexamers and oligo-dT were used as primers. For real-time PCR analysis, cDNA was amplified using Roche LightCycler 480 (Roche Diagnostics) and SYBR Green1 Master mix (Roche Diagnostics). PCR was run for 45 cycles and each cycle included denaturation at 95°C for 10 seconds, annealing at 60°C for 10 seconds, and extension at 72°C for 10 seconds. Quantification of env and gag was carried using 18S RNA as a normalization standard. Quantification of housekeeping genes, β-actin and RSP13 was carried relative to 18S RNA. Mean Cp values were determined and ΔΔCt method was used to calculate relative expression levels. Unpaired t-test was used to test statistical significance.
The following primer sequences were used: env, forward - […], reverse-[…]; gag, forward- […], reverse- […]; β-actin, forward- […], reverse-[…]; RSP13, forward- […], reverse- […]; and 18SrRNA, forward- […], reverse- […].
For orientation: Real-time PCR tracks product formation cycle by cycle.

In data set [2] the target is T1, Recombinant PP1 (human PP1α residues 7–300) (Homo sapiens, UniProt P62136).
T1 construct: human PP1α (residues 7–300); His; made in house; host or cells: BL21 (DE3) Escherichia coli, co-expressed with GroEL/GroES chaperones
T1 sequence (P62136 7-300): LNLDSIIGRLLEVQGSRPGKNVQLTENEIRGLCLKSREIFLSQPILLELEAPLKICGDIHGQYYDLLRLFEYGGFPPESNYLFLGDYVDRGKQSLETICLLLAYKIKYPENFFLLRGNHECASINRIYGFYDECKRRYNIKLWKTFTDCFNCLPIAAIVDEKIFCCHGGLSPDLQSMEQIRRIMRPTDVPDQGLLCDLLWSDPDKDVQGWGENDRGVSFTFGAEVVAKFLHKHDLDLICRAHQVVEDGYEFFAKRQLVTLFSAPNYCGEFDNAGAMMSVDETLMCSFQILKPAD
Kind of data set: Surface plasmon resonance direct binding to immobilized PP1. Conditions: SPR. The protocol: PP1 was purified as previously described. BL21 (DE3) Escherichia coli cells (Invitrogen, Carlsbad, CA, USA) were -transformed with a vector expressing human PP1α (residues 7–300) and pGR07, which expresses GroEL/[…] chaperones (both gifts from Dr Mathieu Bollen and Monique Beullens, KU Leuven, Belgium). The cells were grown in media supplemented with 1 mM MnCl2 at 30°C to an A600 =0.5. Arabinose (2 g per L) was added to induce expression of the GroEL/GroES chaperones. When A600 =1 was reached, the cells were transferred to 10°C and PP1 expression was induced with 0.1 mM Isopropyl β-D-1-thiogalactopyranoside for 20 hrs. Harvested cells were lysed using sonication in a solution containing in 50 mM Tris-HCl (pH 8.0), 5 mM imidazole, 700 mM NaCl, 1 mM MnCl2, 0.1% Triton X-100 (v/v) and protease inhibitors. His-tagged PP1 was purified using a Ni-NTA IMAC column (Qiagen, Valencia, CA, USA). Purified PP1 was dialyzed and stored at −70°C in 50 mM Tris-HCl (pH 8.0), 5 mM imidazole, 700 mM NaCl and 1 mM MnCl2. PP1 activity was then assayed as previously described.
The SPR measurements were conducted on Biacore T200 instrument (GE Healthcare, Piscataway, NJ) at 25°C. Recombinant PP1 was immobilized on a CM5 chip by amine coupling (GE Healthcare). PP1 (200 nM) was captured on flow cell 2 in 10 mM acetate buffer, pH 5.0, supplemented with 2 mM MnCl2. […] Flow cell 1 was used as a reference surface to subtract background signal. Also injections of the buffer alone were used to provide double reference subtraction. […] For binding and kinetics experiments, all compounds were diluted in the running buffer, at 40 μM, 20 μM, 10 μM, 5 μM, 2.5 μM, 1.25 μM and 0 μM and then passed over the two flow cells at a flow rate of 100 μl/min for 60 sec. The number of response units was recorded after the subtraction of the reference flow cell's value (Fc2-1). Two repetitions were performed for each injection. Data were analyzed using the BiaEvaluation software of Biacore with a 1:1 binding model. […] All the small molecular weight compounds were used at 1 μM.
For orientation: SPR reads the build-up and loss of mass on a sensor chip optically.

[3] abbreviates: read-out: One round HIV-1 infection IC50, CEM T cells, HIV-1-LUC-G, Figure 7D.
Setting [4] is: 1:1 binding model, 25°C, read-out: PP1 WT KD.
Where [5] appears, read: as quoted in the discussion, read-out: KD.
Setting [6] is: read-out: One round HIV-1 infection IC50, CEM T cells, HIV-1-LUC-G, Figure 4A.

As usually defined, the pIC50 is the negative decadic logarithm of the IC50, by convention in mol/L. For the molecule `COc1ccc(/C=C2\CCCc3c2nc2ccccc2c3C(=O)OC(C)C(=O)OC(C)(C)C)cc1OC` (centres unmarked) [DP1-07], the pIC50 in the data set on HIV-1-LUC-G (setting [3]) is under 4.18.
One may read the pKd as −log10 of the Kd, conventionally taken in molar units. On to `CCNC(=O)NC(=O)C(C)OC(=O)c1c2c(nc3ccccc13)/C(=C/c1ccc(OC)c(OC)c1)CC2` (centres unmarked) [1E7-03], for which the “% of Total (Liver microsomes, Mouse)” value in data set [1] was 91% and 90.61%. The “HIV-1 env mRNA expression” value with HIV-1 env and gag mRNA is “significantly reduced”. For the same molecule, the “HIV-1 gag mRNA expression” value in the data set on HIV-1 env and gag mRNA is “significantly reduced”. The negative logarithm of the Kd (pKd) in data set [2] (setting [4]) and in data set [2] (setting [5]) was 5.21 each time. Further, the pIC50 was 5.77 with HIV-1-LUC-G (setting [6]) and 5.70 with HIV-1-LUC-G (setting [3]).
For `COc1ccc(/C=C2\CCc3c2nc2ccccc2c3C(=O)O)cc1OC` [DP3], the “% of Total (Liver microsomes, Mouse)” value in data set [1] turned out to be 1.03%. Further, in the data set with HIV-1 env and gag mRNA, the “HIV-1 env mRNA expression” value is “not affected” and the “HIV-1 gag mRNA expression” value is reported as “not affected”. Moreover, the negative-log Kd (pKd) in data set [2] (setting [4]) was 5.31. In addition, the negative logarithm of the Kd (pKd) in data set [2] (setting [5]) is about 5.40. Further, the pIC50 with HIV-1-LUC-G (setting [6]) was under 3.74.
Regarding `COc1ccc(/C=C2\CCc3c2nc2ccccc2c3C(=O)OC(C)C(=O)O)cc1OC` (centres unmarked) [DP1], the “% of Total (Liver microsomes, Mouse)” value in data set [1] is recorded as 8.36%. Also, in the data set on HIV-1 env and gag mRNA, the “HIV-1 env mRNA expression” value is reported as “not affected” and the “HIV-1 gag mRNA expression” value is given as “not affected”. The pKd in data set [2] (setting [4]) was 5.43. In addition, in data set [2] (setting [5]), the pKd was about 5.40. Further, the negative-log IC50 (pIC50) in the data set on HIV-1-LUC-G (setting [6]) is 4.77.
